# In patent US20260285816A1, “Piperazinyl-Modified Quinazolinyl-Aryl Urea Derivative, And Preparation Method And Use Thereof” (Guangxi Normal University, priority 2025, published 2026):
# Where two headings read alike, the source gives them in different places.
# Columns and labels:
# Format in all cases: cell-based, human
# [1] = system: immortalized ureteral epithelial cells (SV-HUC-1); test: CCK-8 anti-proliferative assay, normal cells SV-HUC-1; conditions: read-out: Anti-proliferative activity (IC50 ± standard deviation) SV-HUC-1
# Method: (§1) The obtained quinazolinyl-aryl urea derivatives were screened for compounds with optimal activity using the following method.
# (§2) Experimental Procedure for Anti-Proliferative Activity Evaluation: The CCK-8 assay was employed. Cells in logarithmic growth phase were harvested, adjusted to appropriate density, and uniformly seeded into 96-well plates using a multichannel pipette (180 μL cell suspension containing complete medium per well, 5,000 cells/well). Blank control wells (containing basal medium, CCK-8 solution, and DMSO only) were set. Cells were incubated at 37° C. under 5% CO2. After 70% confluency was reached, test compounds (target compounds/positive controls) were added at final concentrations of 1, 2, 4, 6, 8, 12, 16, 24, and 30 μM (3 repeated wells per concentration). Compounds were pre-dissolved in DMSO, sterilized, and diluted with medium before adding 20 μL/well. After co-incubation for designated durations, 10 μL CCK-8 solution was added per well followed by 1-4 h incubation (different cells have different incubation times). […] Inhibition rates were calculated as: (ODcontrol−ODtreatment)/ODcontrol×100%. Median inhibitory concentrations (IC50 values) were derived using Origin v8.0 software.
# SK-OV-3 cells = test: CCK-8 anti-proliferative assay, SK-OV-3; conditions: co-incubated 48 h, read-out: Anti-proliferative activity (IC50 ± standard deviation) SK-OV-3
# Method: as §1, §2
# HeLa cells = test: CCK-8 anti-proliferative assay, HeLa; conditions: Table 8; co-incubated 48 h; read-out: Anti-proliferative activity (IC50 ± standard deviation) HeLa
# Method: as §1, §2
# Hep G2 cells = test: CCK-8 anti-proliferative assay, Hep G2; conditions: Table 8; co-incubated 48 h; read-out: Anti-proliferative activity (IC50 ± standard deviation) Hep G2
# From the text: (§3) The obtained quinazolinyl-aryl urea derivatives were screened for compounds with optimal activity using the following method. All cell lines employed in this experiment were of human origin, including: bladder cancer cells: J82, UM-UC-3, T24, 5637, pancreatic cancer cells: BxPC-3, PANC-1, osteosarcoma cells: 143B, MG-63, cervical cancer cells: HeLa, breast cancer cells: MCF-7, NSCLC cells: A549, hepatoblastoma cells: Hep G2, and ovarian cancer cells: SK-OV-3, as well as normal cell lines: immortalized ureteral epithelial cells (SV-HUC-1), embryonic lung fibroblasts (WI-38).
# (§4) Experimental Procedure for Anti-Proliferative Activity Evaluation: The CCK-8 assay was employed. Cells in logarithmic growth phase were harvested, adjusted to appropriate density, and uniformly seeded into 96-well plates using a multichannel pipette (180 μL cell suspension containing complete medium per well, 5,000 cells/well). Blank control wells (containing basal medium, CCK-8 solution, and DMSO only) were set. Cells were incubated at 37° C. under 5% CO2. After 70% confluency was reached, test compounds (target compounds/positive controls) were added at final concentrations of 1, 2, 4, 6, 8, 12, 16, 24, and 30 μM (3 repeated wells per concentration). Compounds were pre-dissolved in DMSO, sterilized, and diluted with medium before adding 20 μL/well. After co-incubation for designated durations, 10 μL CCK-8 solution was added per well followed by 1-4 h incubation (different cells have different incubation times). The reaction was terminated, and OD (optical density) values at 450 nm were measured using a microplate reader. Inhibition rates were calculated as: (ODcontrol−ODtreatment)/ODcontrol×100%. Median inhibitory concentrations (IC50 values) were derived using Origin v8.0 software.
# UM-UC-3 cells = test: CCK-8 anti-proliferative assay, UM-UC-3; conditions: co-incubated 48 h, read-out: Anti-proliferative activity (IC50 ± standard deviation) UM-UC-3
# Method: as §1, §2
# A549 cells = test: CCK-8 anti-proliferative assay, A549; conditions: Table 8; co-incubated 48 h; read-out: Anti-proliferative activity (IC50 ± standard deviation) A549
# Method: as §1, §2
# MCF-7 cells = test: CCK-8 anti-proliferative assay, MCF-7; conditions: Table 8; co-incubated 48 h; read-out: Anti-proliferative activity (IC50 ± standard deviation) MCF-7
# Method: as §1, §2
# T24 cells = test: CCK-8 anti-proliferative assay, T24; conditions: Table 6; co-incubated 48 h; read-out: Anti-proliferative activity (IC50 ± standard deviation) T24
# From the text: as §3, §4
# BxPC-3 cells = test: CCK-8 anti-proliferative assay, BxPC-3; conditions: co-incubated 48 h, read-out: Anti-proliferative activity (IC50 ± standard deviation) BxPC-3
# From the text: as §3, §4
# MG-63 cells = test: CCK-8 anti-proliferative assay, MG-63; conditions: co-incubated 48 h, read-out: Anti-proliferative activity (IC50 ± standard deviation) MG-63
# From the text: as §3, §4
# 5637 cells = test: CCK-8 anti-proliferative assay, 5637; conditions: Table 6; co-incubated 48 h; read-out: Anti-proliferative activity (IC50 ± standard deviation) 5637
# Method: as §1, §2
# 143B cells = test: CCK-8 anti-proliferative assay, 143B; conditions: co-incubated 48 h, read-out: Anti-proliferative activity (IC50 ± standard deviation) 143B
# From the text: as §3, §4
# J82 cells = test: CCK-8 anti-proliferative assay, J82; conditions: Table 6; co-incubated 48 h; read-out: Anti-proliferative activity (IC50 ± standard deviation) J82
# Method: as §1, §2
# [2] = system: embryonic lung fibroblasts (WI-38); test: CCK-8 anti-proliferative assay, normal cells WI-38; conditions: Table 9, co-incubated 48 h, read-out: Anti-proliferative activity (IC50 ± standard deviation) WI-38
# From the text: as §3, §4
# PANC-1 cells = test: CCK-8 anti-proliferative assay, PANC-1; conditions: co-incubated 48 h, read-out: Anti-proliferative activity (IC50 ± standard deviation) PANC-1
# From the text: as §3, §4
# [3] = Table 9, normal cells, co-incubated 48 h
# [4] = Homo sapiens, UMUC3, Table 14, comparative compounds
# [5] = Homo sapiens, BXPC-3, Table 15, comparative compounds
# [6] = Homo sapiens, MG-63, Table 14, comparative compounds
# [7] = Homo sapiens, SK-OV-3, Table 15, comparative compounds
# [8] = Homo sapiens, 143B, Table 14, comparative compounds
# [9] = Homo sapiens, PANC-1, Table 15, comparative compounds
Structure (SMILES),IC50 (BxPC-3 cells; [5]) [µM],IC50 (SK-OV-3 cells; [7]) [µM],IC50 (PANC-1 cells; [9]) [µM],IC50 (UM-UC-3 cells; [4]) [µM],IC50 (MG-63 cells; [6]) [µM],IC50 (143B cells; [8]) [µM],also measured
"[NH2][Pt]([NH2])([Cl])[Cl] [CDDP, cisplatin, reference compound]",,,,,,,"IC50 [1, 3]: 10.3 ± 0.68 µM; IC50 (SK-OV-3 cells; Table 9): 9.89 ± 0.97 µM"
"COc1cc2ncnc(NCc3cccc(NC(=O)Nc4ccccc4)c3)c2cc1OCCCCCCN1CCN(CCN2CCOCC2)CC1 [Compound 8-1a, N-(3-(((7-methoxy-6-((6-(4-(2-morpholinoethyl)piperazin-1-yl)hexyl)oxy)quinazolin-4-yl)a-mino)methyl)phenyl)-N′-phenylurea]",,,,,,,"IC50 (HeLa cells): > 30 µM; IC50 (Hep G2 cells): > 30 µM; IC50 (UM-UC-3 cells; Table 6): > 30 µM; IC50 (A549 cells): > 30 µM; IC50 [1, 3]: > 30 µM; IC50 (MCF-7 cells): > 30 µM; IC50 (T24 cells): > 30 µM; IC50 (BxPC-3 cells; Table 7): 15.7 ± 0.78 µM; IC50 (MG-63 cells; Table 7): 27.3 ± 1.51 µM; IC50 (SK-OV-3 cells; Table 9): 28.1 ± 1.72 µM; IC50 (5637 cells): 26.4 ± 1.63 µM; IC50 (143B cells; Table 7): 18.7 ± 1.63 µM; IC50 (J82 cells): > 30 µM; IC50 [2]: 25.9 ± 2.74 µM; IC50 (PANC-1 cells; Table 7): > 30 µM"
"COc1cc2ncnc(NCc3cccc(NC(=O)Nc4ccccc4)c3)c2cc1OC [Compound I-1, reference compound]",18.6 ± 1.66,28.4 ± 1.46,> 30,> 30,27.1 ± 1.45,18.3 ± 1.74,
"COc1cc2ncnc(NCc3cccc(NC(=O)Nc4ccc(C)cc4)c3)c2cc1OC [Compound I-2, reference compound]",10.3 ± 0.59,10.1 ± 0.69,24.4 ± 1.69,11.2 ± 0.85,11.2 ± 0.67,6.34 ± 0.56,
"COc1cc2ncnc(NCc3cccc(NC(=O)Nc4ccc(C)cc4C)c3)c2cc1OC [Compound I-3, reference compound]",7.78 ± 0.69,9.17 ± 0.58,17.6 ± 1.48,9.02 ± 0.74,12.1 ± 0.76,5.94 ± 0.33,
"CCc1ccccc1NC(=O)Nc1cccc(CNc2ncnc3cc(OC)c(OC)cc23)c1 [Compound I-5, reference compound]",6.54 ± 0.61,7.76 ± 0.38,12.5 ± 0.97,10.5 ± 0.71,13.4 ± 0.95,6.47 ± 0.28,
"COc1ccccc1NC(=O)Nc1cccc(CNc2ncnc3cc(OC)c(OC)cc23)c1 [Compound I-6, reference compound]",23.6 ± 1.47,9.12 ± 0.44,26.5 ± 2.36,20.6 ± 2.37,25.4 ± 1.74,19.3 ± 1.67,
"COc1ccc(NC(=O)Nc2cccc(CNc3ncnc4cc(OC)c(OC)cc34)c2)cc1 [Compound I-7, reference compound]",22.8 ± 1.71,13.7 ± 0.85,> 30,18.6 ± 1.35,> 30,21.3 ± 1.59,
"COc1cc2ncnc(NCc3cccc(NC(=O)Nc4ccc(F)cc4)c3)c2cc1OC [Compound I-9, reference compound]",8.62 ± 0.86,10 ± 0.53,10.7 ± 0.95,9.56 ± 0.72,14.8 ± 1.22,6.11 ± 0.42,
"COc1cc2ncnc(NCc3cccc(NC(=O)Nc4ccccc4Cl)c3)c2cc1OC [Compound I-10, reference compound]",9.85 ± 0.76,11.2 ± 0.92,11.7 ± 0.82,8.77 ± 0.41,11.1 ± 0.54,7.74 ± 0.39,
"COc1cc2ncnc(NCc3cccc(NC(=O)NCc4ccccc4)c3)c2cc1OC [Compound I-14, reference compound]",12.3 ± 0.56,19.7 ± 0.73,> 30,> 30,> 30,> 30,
"CNC(=O)c1cc(Oc2ccc(NC(=O)Nc3ccc(Cl)c(C(F)(F)F)c3)c(F)c2)ccn1 [Reg, regorafenib, reference compound]",,,,,,,"IC50 ([1]; Homo sapiens, SV-HUC1, 48 h): 11.4 ± 0.69 µM"

# Second part, led by results:
IC50 (BxPC-3 cells; [5]) [µM],IC50 (SK-OV-3 cells; [7]) [µM],IC50 (PANC-1 cells; [9]) [µM],Structure (SMILES),IC50 (UM-UC-3 cells; [4]) [µM],IC50 (MG-63 cells; [6]) [µM],IC50 (143B cells; [8]) [µM],also measured
27.6 ± 1.91,> 30,> 30,"O=C(Nc1ccccc1)Nc1cccc(CNc2ncnc3ccccc23)c1 [Compound II-1, reference compound]",> 30,> 30,> 30,
15.5 ± 1.71,19.5 ± 1.37,> 30,"Cc1cccc(NC(=O)Nc2cccc(CNc3ncnc4ccccc34)c2)c1 [Compound II-2, reference compound]",22.8 ± 1.38,19.3 ± 1.76,13.2 ± 0.86,
14.3 ± 0.86,14.7 ± 0.98,> 30,"Cc1ccc(NC(=O)Nc2cccc(CNc3ncnc4ccccc34)c2)cc1 [Compound II-3, reference compound]",17.8 ± 0.57,17.8 ± 0.95,11.3 ± 0.88,
9.92 ± 0.41,8.4 ± 0.53,14.8 ± 1.24,"CCc1cccc(CC)c1NC(=O)Nc1cccc(CNc2ncnc3ccccc23)c1 [Compound II-5, reference compound]",8.72 ± 0.36,10.5 ± 0.82,7.26 ± 0.35,
13.3 ± 0.87,7.78 ± 0.69,15.7 ± 1.52,"CC(C)(C)c1ccc(NC(=O)Nc2cccc(CNc3ncnc4ccccc34)c2)cc1 [Compound II-9, reference compound]",9.77 ± 0.52,9.24 ± 0.71,10.5 ± 0.43,
8.43 ± 0.39,15 ± 1.74,26.2 ± 2.26,"O=C(Nc1ccc(C(F)(F)F)cc1)Nc1cccc(CNc2ncnc3ccccc23)c1 [Compound II-13, reference compound]",9.63 ± 0.52,20.8 ± 0.95,7.56 ± 0.27,
14.2 ± 0.82,9.27 ± 0.55,20.7 ± 0.96,"O=C(Nc1cccc(CNc2ncnc3ccccc23)c1)Nc1ccc(Cl)cc1Cl [Compound II-17, reference compound]",7.69 ± 0.56,8.54 ± 0.59,10.3 ± 0.67,
